Source: the NIST ThermoML archive (doi:10.1021/je034213q)

Details: Gas

FC(F)C(F)(F)F [pentafluoroethane]
Details	speed of sound [m/s]
277.16 K, 20.94 kPa	144.94
277.16 K, 40.92 kPa	144.49
277.16 K, 60.65 kPa	144.05
277.16 K, 80.97 kPa	143.59
277.16 K, 101.09 kPa	143.13
277.16 K, 121.01 kPa	142.67
277.16 K, 141.08 kPa	142.2
277.16 K, 161.07 kPa	141.73
277.16 K, 180.84 kPa	141.26
277.16 K, 198.8 kPa	140.83
303.14 K, 10.51 kPa	151.5
303.14 K, 20.76 kPa	151.31
303.14 K, 40.75 kPa	150.97
303.14 K, 60.79 kPa	150.62
303.14 K, 80.27 kPa	150.28
303.14 K, 100.78 kPa	149.93
303.14 K, 120.91 kPa	149.57
303.14 K, 140.84 kPa	149.22
303.14 K, 160.84 kPa	148.87
303.14 K, 180.99 kPa	148.5
303.14 K, 200.32 kPa	148.16
303.14 K, 300.92 kPa	146.32
303.14 K, 398.68 kPa	144.47
303.14 K, 465.23 kPa	143.19
313.15 K, 10.5 kPa	153.84
313.15 K, 20.68 kPa	153.68
313.15 K, 40.59 kPa	153.37
313.15 K, 60.28 kPa	153.06
313.15 K, 80.59 kPa	152.74
313.15 K, 100.57 kPa	152.43
313.15 K, 120.77 kPa	152.11
313.15 K, 140.78 kPa	151.79
313.15 K, 160.71 kPa	151.47
313.15 K, 180.78 kPa	151.14
313.15 K, 200.47 kPa	150.82
313.15 K, 300.67 kPa	149.18
313.15 K, 400.7 kPa	147.49
313.15 K, 480.34 kPa	146.12
323.14 K, 10.7 kPa	156.16
323.14 K, 20.42 kPa	156.02
323.14 K, 40.64 kPa	155.73
323.14 K, 60.8 kPa	155.44
323.14 K, 80.84 kPa	155.16
323.14 K, 100.74 kPa	154.87
323.14 K, 120.86 kPa	154.58
323.14 K, 140.92 kPa	154.29
323.14 K, 160.95 kPa	154
323.14 K, 180.33 kPa	153.71
323.14 K, 200.71 kPa	153.41
323.14 K, 300.75 kPa	151.93
323.14 K, 400.83 kPa	150.41
323.14 K, 501.38 kPa	148.85
343.13 K, 40.76 kPa	160.33
343.13 K, 60.62 kPa	160.09
343.13 K, 80.21 kPa	159.86
343.13 K, 100.97 kPa	159.61
343.13 K, 120.73 kPa	159.37
343.13 K, 140.89 kPa	159.13
343.13 K, 160.51 kPa	158.89
343.13 K, 180.9 kPa	158.65
343.13 K, 197.5 kPa	158.44
343.13 K, 300.29 kPa	157.19
343.13 K, 400.48 kPa	155.94
343.13 K, 500.26 kPa	154.68
343.13 K, 600.3 kPa	153.41
343.14 K, 20.77 kPa	160.58
343.14 K, 40.77 kPa	160.34
343.14 K, 59.94 kPa	160.11
343.14 K, 80.48 kPa	159.86
343.14 K, 100.55 kPa	159.62
343.14 K, 120.9 kPa	159.38
343.14 K, 140.63 kPa	159.14
343.14 K, 160.64 kPa	158.9
343.14 K, 180.84 kPa	158.65
343.14 K, 200.46 kPa	158.41
343.14 K, 300.55 kPa	157.19
343.14 K, 399.77 kPa	155.96
343.14 K, 501.32 kPa	154.68
